# Read-outs that look alike come from different tables or passages of the source.
# [1] = 0.1N HCl, 1.0% DMSO, 24-hour incubation at ambient temperature, maximum theoretical 100 μM, first value of the cell
# [2] = 1×PBS buffer (pH 7.4), 1.0% DMSO, 24-hour incubation at ambient temperature, maximum theoretical 100 μM, second value of the cell
pH 2 solubility [1],pH 7 solubility [2],pH 7 solubility,pH 2 solubility (pH 2),Compound
1 μM,5 μM,–,–,"CC(C)(C#Cc1ccc(-c2ccc(Cl)c3c(N(C(=O)NC(CO)CO)S(C)(=O)=O)nn(CC(F)(F)F)c23)c([C@H](Cc2cc(F)cc(F)c2)NC(=O)Cn2nc(C(F)(F)F)c3c2C(F)(F)[C@@H]2C[C@H]32)n1)S(C)(=O)=O [Compound 36, N—((S)-1-(3-(4-chloro-3-(N-((1,3-dihydroxypropan-2-yl)carbamoyl)methylsulfonamido)-1-(2,2,2-trifluoroethyl)-1H-indazol-7-yl)-6-(3-methyl-3-(methylsulfonyl)but-1-yn-1-yl)pyridin-2-yl)-2-(3,5-difluorophenyl)ethyl)-2-((3bS,4aR)-5,5-difluoro-3-(trifluoromethyl)-3b,4,4a,5-tetrahydro-1H-cyclopropa[3,4]cyclopenta[1,2-c]pyrazol-1-yl)acetamide]"
1/1 μM,1/1 μM,–,–,"CN(CC(C)(C)O)C(=O)N(c1nn(CC(F)(F)F)c2c(-c3ccc(C#CC(C)(C)S(C)(=O)=O)nc3[C@H](Cc3cc(F)cc(F)c3)NC(=O)Cn3nc(C(F)(F)F)c4c3C(F)(F)[C@@H]3C[C@H]43)ccc(Cl)c12)S(C)(=O)=O [Compound 47, N—((S)-1-(3-(4-chloro-3-(N-((2-hydroxy-2-methylpropyl)(methyl)carbamoyl)methylsulfonamido)-1-(2,2,2-trifluoroethyl)-1H-indazol-7-yl)-6-(3-methyl-3-(methylsulfonyl)but-1-yn-1-yl)pyridin-2-yl)-2-(3,5-difluorophenyl)ethyl)-2-((3bS,4aR)-5,5-difluoro-3-(trifluoromethyl)-3b,4,4a,5-tetrahydro-1H-cyclopropa[3,4]cyclopenta[1,2-c]pyrazol-1-yl)acetamide]"
1 μM,21 μM,–,–,"CC(C)(C#Cc1ccc(-c2ccc(Cl)c3c(N(C(=O)OCCC(=O)O)S(C)(=O)=O)nn(CC(F)(F)F)c23)c([C@H](Cc2cc(F)cc(F)c2)NC(=O)Cn2nc(C(F)(F)F)c3c2C(F)(F)[C@@H]2C[C@H]32)n1)S(C)(=O)=O [Compound 121, 3-(((4-chloro-7-(2-((S)-1-(2-((3bS,4aR)-5,5-difluoro-3-(trifluoromethyl)-3b,4,4a,5-tetrahydro-1H-cyclopropa[3,4]cyclopenta[1,2-c]pyrazol-1-yl)acetamido)-2-(3,5-difluorophenyl)ethyl)-6-(3-methyl-3-(methylsulfonyl)but-1-yn-1-yl)pyridin-3-yl)-1-(2,2,2-trifluoroethyl)-1H-indazol-3-yl)(methylsulfonyl)carbamoyl)oxy)propanoic acid]"
65 μM,7 μM,–,–,"CC(C)(C#Cc1ccc(-c2ccc(Cl)c3c(N(C(=O)CN4CCNCC4)S(C)(=O)=O)nn(CC(F)(F)F)c23)c([C@H](Cc2cc(F)cc(F)c2)NC(=O)Cn2nc(C(F)(F)F)c3c2C(F)(F)[C@@H]2C[C@H]32)n1)S(C)(=O)=O [Compound 7, (N-(4-chloro-7-(2-((S)-1-(2-((3bS,4aR)-5,5-difluoro-3-(trifluoromethyl)-3b,4,4a,5-tetrahydro-1H-cyclopropa[3,4]cyclopenta[1,2-c]pyrazol-1-yl)acetamido)-2-(3,5-difluorophenyl)ethyl)-6-(3-methyl-3-(methylsulfonyl)but-1-yn-1-yl)pyridin-3-yl)-1-(2,2,2-trifluoroethyl)-1H-indazol-3-yl)-N-(methylsulfonyl)-2-(piperazin-1-yl)acetamide)]"
8 μM,1 μM,–,–,"CC(C)(C#Cc1ccc(-c2ccc(Cl)c3c(N(C(=O)O[C@H]4C[C@@H](NC(=N)N)C4)S(C)(=O)=O)nn(CC(F)(F)F)c23)c([C@H](Cc2cc(F)cc(F)c2)NC(=O)Cn2nc(C(F)(F)F)c3c2C(F)(F)[C@@H]2C[C@H]32)n1)S(C)(=O)=O [Compound 127, cis-3-guanidinocyclobutyl (4-chloro-7-(2-((S)-1-(2-((3bS,4aR)-5,5-difluoro-3-(trifluoromethyl)-3b,4,4a,5-tetrahydro-1H-cyclopropa[3,4]cyclopenta[1,2-c]pyrazol-1-yl)acetamido)-2-(3,5-difluorophenyl)ethyl)-6-(3-methyl-3-(methylsulfonyl)but-1-yn-1-yl)pyridin-3-yl)-1-(2,2,2-trifluoroethyl)-1H-indazol-3-yl)(methylsulfonyl)carbamate]"
33 μM,7 μM,–,–,"CC(C)(C#Cc1ccc(-c2ccc(Cl)c3c(N(C(=O)CN4CCOCC4)S(C)(=O)=O)nn(CC(F)(F)F)c23)c([C@H](Cc2cc(F)cc(F)c2)NC(=O)Cn2nc(C(F)(F)F)c3c2C(F)(F)[C@@H]2C[C@H]32)n1)S(C)(=O)=O [Compound 4, (N-(4-chloro-7-(2-((S)-1-(2-((3bS,4aR)-5,5-difluoro-3-(trifluoromethyl)-3b,4,4a,5-tetrahydro-1H-cyclopropa[3,4]cyclopenta[1,2-c]pyrazol-1-yl)acetamido)-2-(3,5-difluorophenyl)ethyl)-6-(3-methyl-3-(methylsulfonyl)but-1-yn-1-yl)pyridin-3-yl)-1-(2,2,2-trifluoroethyl)-1H-indazol-3-yl)-N-(methylsulfonyl)-2-morpholinoacetamide)]"
1 μM,89 μM,–,–,"CC(C)(C#Cc1ccc(-c2ccc(Cl)c3c(N(C(=O)OCCCCCOP(=O)(O)O)S(C)(=O)=O)nn(CC(F)(F)F)c23)c([C@H](Cc2cc(F)cc(F)c2)NC(=O)Cn2nc(C(F)(F)F)c3c2C(F)(F)[C@@H]2C[C@H]32)n1)S(C)(=O)=O [Compound 104, 5-(phosphonooxy)pentyl (4-chloro-7-(2-((S)-1-(2-((3bS,4aR)-5,5-difluoro-3-(trifluoromethyl)-3b,4,4a,5-tetrahydro-1H-cyclopropa[3,4]cyclopenta[1,2-c]pyrazol-1-yl)acetamido)-2-(3,5-difluorophenyl)ethyl)-6-(3-methyl-3-(methylsulfonyl)but-1-yn-1-yl)pyridin-3-yl)-1-(2,2,2-trifluoroethyl)-1H-indazol-3-yl)(methylsulfonyl)carbamate]"
1/1 μM,1/1 μM,–,–,"C[C@@H](O)CN(C)C(=O)N(c1nn(CC(F)(F)F)c2c(-c3ccc(C#CC(C)(C)S(C)(=O)=O)nc3[C@H](Cc3cc(F)cc(F)c3)NC(=O)Cn3nc(C(F)(F)F)c4c3C(F)(F)[C@@H]3C[C@H]43)ccc(Cl)c12)S(C)(=O)=O [Compound 48, N—((S)-1-(3-(4-chloro-3-(N—(((R)-2-hydroxypropyl)(methyl)carbamoyl)methylsulfonamido)-1-(2,2,2-trifluoroethyl)-1H-indazol-7-yl)-6-(3-methyl-3-(methylsulfonyl)but-1-yn-1-yl)pyridin-2-yl)-2-(3,5-difluorophenyl)ethyl)-2-((3bS,4aR)-5,5-difluoro-3-(trifluoromethyl)-3b,4,4a,5-tetrahydro-1H-cyclopropa[3,4]cyclopenta[1,2-c]pyrazol-1-yl)acetamide]"
–,–,2/83 μM,2/83 μM,"CC(C)(C#Cc1ccc(-c2ccc(Cl)c3c(N(C(=O)OC(CCC(=O)O)CCC(=O)O)S(C)(=O)=O)nn(CC(F)(F)F)c23)c([C@H](Cc2cc(F)cc(F)c2)NC(=O)Cn2nc(C(F)(F)F)c3c2C(F)(F)[C@@H]2C[C@H]32)n1)S(C)(=O)=O [Compound 124, 4-(((4-chloro-7-(2-((S)-1-(2-((3bS,4aR)-5,5-difluoro-3-(trifluoromethyl)-3b,4,4a,5-tetrahydro-1H-cyclopropa[3,4]cyclopenta[1,2-c]pyrazol-1-yl)acetamido)-2-(3,5-difluorophenyl)ethyl)-6-(3-methyl-3-(methylsulfonyl)but-1-yn-1-yl)pyridin-3-yl)-1-(2,2,2-trifluoroethyl)-1H-indazol-3-yl)(methylsulfonyl)carbamoyl)oxy)heptanedioic acid]"
6 μM,16 μM,–,–,"CC(C)(CNC(=O)N(c1nn(CC(F)(F)F)c2c(-c3ccc(C#CC(C)(C)S(C)(=O)=O)nc3[C@H](Cc3cc(F)cc(F)c3)NC(=O)Cn3nc(C(F)(F)F)c4c3C(F)(F)[C@@H]3C[C@H]43)ccc(Cl)c12)S(C)(=O)=O)OP(=O)(O)O [Compound 33, 1-(3-(4-chloro-7-(2-((S)-1-(2-((3bS,4aR)-5,5-difluoro-3-(trifluoromethyl)-3b,4,4a,5-tetrahydro-1H-cyclopropa[3,4]cyclopenta[1,2-c]pyrazol-1-yl)acetamido)-2-(3,5-difluorophenyl)ethyl)-6-(3-methyl-3-(methylsulfonyl)but-1-yn-1-yl)pyridin-3-yl)-1-(2,2,2-trifluoroethyl)-1H-indazol-3-yl)-3-(methylsulfonyl)ureido)-2-methylpropan-2-yl dihydrogen phosphate]"
1 μM,100 μM,–,–,"CC(C)(C#Cc1ccc(-c2ccc(Cl)c3c(N(C(=O)OCCOCCOCCOP(=O)(O)O)S(C)(=O)=O)nn(CC(F)(F)F)c23)c([C@H](Cc2cc(F)cc(F)c2)NC(=O)Cn2nc(C(F)(F)F)c3c2C(F)(F)[C@@H]2C[C@H]32)n1)S(C)(=O)=O [Compound 108, 2-(2-(2-(phosphonooxy)ethoxy)ethoxy)ethyl (4-chloro-7-(2-((S)-1-(2-((3bS,4aR)-5,5-difluoro-3-(trifluoromethyl)-3b,4,4a,5-tetrahydro-1H-cyclopropa[3,4]cyclopenta[1,2-c]pyrazol-1-yl)acetamido)-2-(3,5-difluorophenyl)ethyl)-6-(3-methyl-3-(methylsulfonyl)but-1-yn-1-yl)pyridin-3-yl)-1-(2,2,2-trifluoroethyl)-1H-indazol-3-yl)(methylsulfonyl)carbamate]"
14 μM,22 μM,–,–,"CC(C)(C#Cc1ccc(-c2ccc(Cl)c3c(N(C(=O)N(CC(=O)O)CC(=O)O)S(C)(=O)=O)nn(CC(F)(F)F)c23)c([C@H](Cc2cc(F)cc(F)c2)NC(=O)Cn2nc(C(F)(F)F)c3c2C(F)(F)[C@@H]2C[C@H]32)n1)S(C)(=O)=O [Compound 78, 2,2′-(((4-chloro-7-(2-((S)-1-(2-((3bS,4aR)-5,5-difluoro-3-(trifluoromethyl)-3b,4,4a,5-tetrahydro-1H-cyclopropa[3,4]cyclopenta[1,2-c]pyrazol-1-yl)acetamido)-2-(3,5-difluorophenyl)ethyl)-6-(3-methyl-3-(methylsulfonyl)but-1-yn-1-yl)pyridin-3-yl)-1-(2,2,2-trifluoroethyl)-1H-indazol-3-yl)(methylsulfonyl)carbamoyl)azanediyl)diacetic acid]"
